Columns and labels:
[1] = tested on: chronic primary insomnia patients with sleep maintenance difficulties; assay: Phase III study of doxepin, 8-hour PSG efficacy variables (WASO, TST, SE, LPS); settings: ITT
Description: (§1) Patients with at least a 3-month history of primary insomnia, according to Diagnostic and Statistical Manual of Mental Disorders, Fourth Edition Text Revision (DSM-IV-TR)-defined primary insomnia were enrolled.
Patients were screened (Visit 1) to determine study eligibility and asked to discontinue any protocol-disallowed prescription or over-the-counter (OTC) medications used as sleep medication. At the beginning of the first week (polysomnography [PSG] Screening, Visit 2), eligible patients began two weeks of single-blind placebo dosing and had two consecutive nights of 8-hour PSG recording in the sleep center. Patients were required to meet the PSG screening criteria to remain eligible for the study. Patients were allowed to leave the sleep center during the day after the PSG Screening nights and continued to take single-blind placebo after PSG Screening (Visit 2) for five consecutive nights at home.
Patients were allowed to leave the sleep center during the day after the PSG nights and continued taking single-blind placebo for five consecutive nights at home.
(§2) After the PSG Screening and Baseline periods, patients began a 35-day double-blind treatment period during which they were given study drug supplies at each scheduled visit (Visits 4, 5, and 6). The scheduled study visits consisted of two consecutive nights of 8-hour PSG recording in the sleep center and next day assessments to assess sedative efficacy. Patients were asked to complete hangover/residual effects assessments, morning and evening questionnaires, and the Benzodiazepine Withdrawal Symptom Questionnaire (BWSQ) at each of these visits.
Primary Efficacy: The primary efficacy variable was wake after sleep onset (WASO) obtained on Night 1 as determined by PSG recordings using the ITT analysis set.
Additional PSG efficacy variables: Additional efficacy variables obtained on the first PSG assessment nights (Nights 1 and 29) included WASO (Night 29), wake time during sleep (WTDS), total sleep time (TST), sleep efficiency (SE), including whole night, third of the night, and by hour, and latency to persistent sleep (LPS), latency to Stage 2 sleep, number of awakenings after sleep onset (NAASO), total wake time (TWT), wake time after sleep (WTAS), and, sleep architecture including percentage and minutes of Stage 1, 2, and 3/4 non-rapid eye movement (NREM) sleep, percentage and minutes of rapid eye movement (REM) sleep, and latency to REM sleep.
(§3) Methods used to analyze other endpoints were the same as those used to analyze WASO. For LPS, latency to REM sleep, latency to Stage 2 sleep, and LSO, data were expected to be log-normally distributed and were analyzed using log-transformed values (base 10). The safety data were analyzed primarily using descriptive statistical methods.
(§4) All efficacy analyses were performed on the Intent-to-treat (ITT) analysis set. […] Data were analyzed as randomized and based on observed cases.

[2] = tested on: chronic primary insomnia patients with sleep maintenance difficulties; assay: Phase III study of doxepin, subjective assessments by morning questionnaire (sWASO, LSO, sTST); settings: ITT; for LSO (subjective latency to sleep onset), Mean (SD) / sTST (subjective total sleep time), Mean (SD) / sTST, Median / sWASO (subjective wake after sleep onset), Mean (SD): Baseline (mean of Days −5 and −4)
Description: as §1, §2
Subjective Variables: Subjective assessments included data obtained on Days 2, 16, and 30, and included subjective TST (sTST), subjective WASO (sWASO), latency to sleep onset (LSO), subjective NAASO (sNAASO), and sleep quality (all assessed by a morning questionnaire), daytime functioning (assessed by an evening questionnaire), average nightly sTST during at-home administration (5 days before the PSG visit), CGI rating scale for Severity and Therapeutic Effect completed by the clinician and patient, and a measure of insomnia severity (assessed by ISI).
as §3, §4

[3] = doxepin 3 mg, Night 15, p 0.1977 vs placebo
[4] = doxepin 3 mg, Night 29, p 0.0262 vs placebo
[5] = doxepin 6 mg, Night 1, p<0.0001 vs placebo
[6] = doxepin 6 mg, Night 15, p 0.0157 vs placebo
[7] = doxepin 6 mg, Night 29, p 0.0003 vs placebo

Compound: CN(C)CCC=C1c2ccccc2COc2ccccc21 [Doxepin, 11-(3-dimethylaminopropylidene)-6,11-dihydrodibenzo (b,e)oxepin]
- SE (8-hour PSG), Mean (SD) [1, 3]: 83.7 (10.12) %
- TST (8-hour PSG), Mean (SD) [1, 3]: 401.7 (48.56) minutes
- LPS (PSG), Mean (SD) ([1]; doxepin 3 mg, Night 15, p 0.3644 vs placebo): 38.2 (40.52) minutes
- SE (8-hour PSG), Mean (SD) [1, 4]: 85.0 (10.92) %
- TST (8-hour PSG), Mean (SD) [1, 4]: 408.1 (52.41) minutes
- 8-hour WASO, Mean (SD) ([1]; doxepin 3 mg, Night 29, p 0.0299 vs placebo): 47.3 (43.53) minutes
- SE - Hour 8 (PSG), Mean (SD) ([1]; doxepin 3 mg, Night 29, p 0.0524 vs placebo): 81.9 (20.81) %
- LPS (PSG), Mean (SD) ([1]; doxepin 3 mg, Night 29, p 0.9008 vs placebo): 28.0 (25.99) minutes
- 8-hour WASO, Mean (SD) ([1]; doxepin 6 mg group, Baseline (single-blind placebo)): 65.0 (33.23) minutes
- LPS (latency to persistent sleep, PSG), Mean (SD) ([1]; doxepin 6 mg group, Baseline): 39.1 (34.10) minutes
- SE - Hour 8 (PSG), Mean (SD) ([1]; doxepin 6 mg group, Baseline): 76.4 (21.26) %
- TST (8-hour PSG), Mean (SD) ([1]; doxepin 6 mg group, Baseline): 380.3 (43.09) minutes
- 8-hour WASO, Mean (SD) ([1]; doxepin 6 mg, Night 1 (primary), p<0.0001 vs placebo): 36.3 (26.14) minutes
- SE (8-hour PSG), Mean (SD) [1, 5]: 87.6 (7.72) %
- SE - Hour 8 (PSG), Mean (SD) [1, 5]: 88.4 (14.25) %
- TST (8-hour PSG), Mean (SD) [1, 5]: 420.5 (37.07) minutes
- 8-hour WASO, Mean (SD) ([1]; doxepin 6 mg, Night 15, p 0.0023 vs placebo): 41.9 (29.67) minutes
- SE (8-hour PSG), Mean (SD) [1, 6]: 85.7 (10.70) %
- TST (8-hour PSG), Mean (SD) [1, 6]: 411.3 (51.34) minutes
- LPS (PSG), Mean (SD) ([1]; doxepin 6 mg, Night 15, p 0.8315 vs placebo): 31.8 (36.57) minutes
- SE (8-hour PSG), Mean (SD) [1, 7]: 87.3 (9.37) %
- TST (8-hour PSG), Mean (SD) [1, 7]: 419.1 (44.98) minutes
- 8-hour WASO, Mean (SD) ([1]; doxepin 6 mg, Night 29, p 0.0012 vs placebo): 41.2 (37.91) minutes
- SE - Hour 8 (PSG), Mean (SD) ([1]; doxepin 6 mg, Night 29, p 0.0034 vs placebo): 85.8 (19.66) %
- LPS (PSG), Mean (SD) ([1]; doxepin 6 mg, Night 29, p 0.9989 vs placebo): 24.7 (21.48) minutes
- LSO (subjective latency to sleep onset), Mean (SD) ([2]; Doxepin HCl 3 mg group): 61.4 (39.43) minutes
- sTST (subjective total sleep time), Mean (SD) ([2]; Doxepin HCl 3 mg group): 330.0 (63.23) minutes
- sTST, Median ([2]; Doxepin HCl 3 mg group): 330.0 min
- sTST, Mean (SD) ([2]; Doxepin HCl 3 mg, Visit 4, Day 2, p 0.0169 vs placebo): 361.8 (64.03) minutes
- LSO, Mean (SD) ([2]; Doxepin HCl 3 mg, Visit 4, Day 2, p 0.2296 vs placebo): 50.3 (36.73) minutes
- sTST, Mean (SD) ([2]; Doxepin HCl 3 mg, Visit 5, Day 16, p 0.3260 vs placebo): 361.0 (67.22) minutes
- LSO, Mean (SD) ([2]; Doxepin HCl 3 mg, Visit 5, Day 16, p 0.9838 vs placebo): 52.9 (35.17) minutes
- LSO, Mean (SD) ([2]; Doxepin HCl 3 mg, Visit 6, Day 30, p 0.3567 vs placebo): 48.9 (34.71) minutes
- sTST, Mean (SD) ([2]; Doxepin HCl 3 mg, Visit 6, Day 30, p 0.9972 vs placebo): 360.7 (68.72) minutes
- LSO (subjective latency to sleep onset), Mean (SD) ([2]; Doxepin HCl 6 mg group): 64.0 (43.45) minutes
- sTST (subjective total sleep time), Mean (SD) ([2]; Doxepin HCl 6 mg group): 339.3 (61.45) minutes
- sTST, Median ([2]; Doxepin HCl 6 mg group): 330.0 min
- sTST, Mean (SD) ([2]; Doxepin HCl 6 mg, Visit 4, Day 2, p 0.0256 vs placebo): 369.0 (78.39) minutes
- LSO, Mean (SD) ([2]; Doxepin HCl 6 mg, Visit 4, Day 2, p 0.0960 vs placebo): 55.7 (56.96) minutes
- sTST, Mean (SD) ([2]; Doxepin HCl 6 mg, Visit 5, Day 16, p 0.1611 vs placebo): 371.5 (72.06) minutes
- LSO, Mean (SD) ([2]; Doxepin HCl 6 mg, Visit 5, Day 16, p 0.2689 vs placebo): 48.7 (42.35) minutes
- sTST, Mean (SD) ([2]; Doxepin HCl 6 mg, Visit 6, Day 30, p 0.6831 vs placebo): 373.0 (75.30) minutes
- LSO, Mean (SD) ([2]; Doxepin HCl 6 mg, Visit 6, Day 30, p 0.8242 vs placebo): 48.3 (47.40) minutes
- sWASO (subjective wake after sleep onset), Mean (SD) ([2]; doxepin 3 mg group): 80.6 (48.12) minutes
- sWASO, Mean (SD) ([2]; doxepin 3 mg, Visit 4, Day 2, p 0.0005 vs placebo): 55.7 (39.81) minutes
- sWASO, Mean (SD) ([2]; doxepin 3 mg, Visit 5, Day 16, p 0.2582 vs placebo): 59.0 (54.14) minutes
- sWASO, Mean (SD) ([2]; doxepin 3 mg, Visit 6, Day 30, p 0.8958 vs placebo): 63.1 (47.24) minutes
- sWASO (subjective wake after sleep onset), Mean (SD) ([2]; doxepin 6 mg group): 78.2 (43.06) minutes
- sWASO, Mean (SD) ([2]; doxepin 6 mg, Visit 4, Day 2, p 0.0007 vs placebo): 54.9 (44.76) minutes
- sWASO, Mean (SD) ([2]; doxepin 6 mg, Visit 5, Day 16, p 0.3357 vs placebo): 58.4 (49.09) minutes
- sWASO, Mean (SD) ([2]; doxepin 6 mg, Visit 6, Day 30, p 0.8020 vs placebo): 58.2 (53.07) minutes
